For 91 molecules, melting point results are on record in a melting point compilation (Tetko et al.; mined from patent text by program, amines drawn as free bases though some values may be those of a salt).

In general, melting point refers to the temperature, or range, at which the solid turns liquid. In turn, `Cc1ccccc1NC(=O)Nc1ccc(CC(=O)NC2(c3cc(CCC(=O)O)on3)CCCC2)cc1` returned a melting point of 195 to 197 °C.

Consider `N[C@H](Cc1ccc2ccccc2c1)C(=O)O`, for which the melting point was 242 to 244 °C. Next, `CC(=O)Nc1cccc2c1Oc1ccccc1C21CCN(C)CC1`: 176 to 178 °C. Next, `c1ccc(COc2cccc3c2nc2n3CCCO2)cc1`: 183 to 184 °C. Next, `Cc1ccc2c(C#N)cn(-c3ccc(C(C)C)cc3Br)c2n1`: 176 °C; `CCOC(=O)c1ccc2[nH]cc(C3=CCN(C)CC3)c2c1`: 249 °C. `Cc1cccc2c1NC(=O)CC2(C)C` came in with a melting point of 120 °C. `CC1(c2ccc(-c3ccccc3)cc2)CC(=O)NN1` (stereo unspecified) had a melting point of 191 to 192 °C.

With `CCCCC(C(=O)N[C@H]1CN2CCC1CC2)c1ccccc1` (stereo partly specified), the melting point worked out at 136 °C. Next, `CN(c1ccccc1)c1ncnc2cc(C(F)(F)F)ccc12`: 135 to 137 °C; `Oc1ccc(CCCn2ccnc2S)cc1`: 185 °C; `CNC1=Nc2ccc(Cl)cc2C(c2ccc[nH]2)=NC1`: 251 °C. `CCOC(=O)c1cccc2nc(CC)n(Cc3ccc(-c4ccccc4C(=O)C(=O)OC)cc3)c12` gave a melting point of 118 to 119 °C.

As for `CCOC(=O)C(Oc1cccc2c1ccn2C(=O)OCc1ccccc1)C(=O)OCC`, the melting point was in the range of 77 to 78 °C. For `O=C(O)c1ccccc1Oc1ccc(C(F)(F)F)cc1NS(=O)(=O)c1ccc(F)cc1`, the melting point is 159 to 160 °C. Next, `O=c1[nH]c(NCCCN(Cc2ccccc2)c2ccccn2)ncc1Cc1ccncc1`: 87 to 89 °C; `O=C(c1ccc(F)cc1)N1CCC[C@H](c2nc(-c3cscn3)no2)C1`: 118 to 120 °C.

On to `CON=C1c2c(Cl)cc(Cl)c(-n3c(=O)cc(C(F)(F)F)n(C)c3=O)c2OC1(C)C`, for which the melting point fell in the range of 145 to 149 °C. Next, `COC(=O)[C@H](Cc1ccc([N+](=O)[O-])cc1)NC(=S)c1c(C)cccc1Cl`: 150 to 153 °C; `O=C(CCl)Nc1sccc1C(O)c1ccccc1Cl` (stereo unspecified): 118 to 120 °C. `O=C1C(=O)c2ccc(-c3ccccc3)cc2C2=C1SCC1(CCN(C(=O)c3cccc(Cl)c3)CC1)O2` displayed a melting point of 240 to 241 °C. Next, `O=C(Oc1ccccc1)c1cc2cccc(O)c2[nH]1`: 156 to 157 °C. Next, `COC(=O)CCC(=O)N(O)Cc1c(C)n(C(=O)c2ccc(Cl)cc2)c2ccc(OC)cc12`: 158 °C; `Cc1ccc(C2=NC[C@@H](O)[C@H](c3ccccc3)O2)cc1` (racemic): 168 °C; `C=C(F)C(=O)Oc1c(Cl)cc(C#N)cc1Cl`: 95 to 99 °C. Next, `CCN(CC)C(=O)c1nc2n(n1)-c1ccc(Cl)cc1C(c1ccccc1)=NC2`: 175 to 177 °C.

Regarding `CCOc1cc(Oc2ccc(S(C)(=O)=O)nc2)cc2cc(C3=NCC(CC(=O)NC)S3)[nH]c12` (stereo unspecified), the melting point fell in the range of 224 to 225 °C. Next, `CNC(=C[N+](=O)[O-])NCCOc1cccc(CN(C)C)c1`: 130 to 131 °C; `COCCCCCCCCCCCC(=O)O`: 45 to 47 °C. Next, `Nc1cccnc1C(=O)NO`: 131 to 133 °C; `COc1ccc(CCNC(=O)N(O)C(C)C)cc1OC`: 113 to 114 °C; `O=c1[nH]c2ncc(-c3ccc(O)cc3)nc2n1CC1CCOC1` (stereo unspecified): 256 to 258 °C.

As to `Cn1c(=O)c2c(ncn2CCCN2CC=C(c3c[nH]c4ccccc34)CC2)n(C)c1=O`, the melting point worked out at 243 °C.

On to `CNC(=O)N1N=C(c2ccc(N)cc2)c2ccc(Cl)cc2CC1C` (stereo unspecified), for which the melting point was 134 to 136 °C. `CN(c1ccccc1)S(=O)(=O)c1ccc(C=CC(C)(O)C(F)(F)F)cc1` (stereo unspecified) returned a melting point of 146 to 148 °C. `Cc1nnc2n1-c1sc(Cl)cc1C(c1ccccc1Cl)=NC2` registered a melting point of 205 to 206 °C. Next, `COc1ccc(-c2nc(Sc3ccc(Cl)cc3)n(C3CCCCO3)c2-c2ccc(OC)cc2)cc1` (stereo unspecified): 202 to 204 °C; `Cc1cc(S(=O)(=O)c2ccc(O)cc2)ccc1C1CCN(C)C1` (stereo unspecified): 186 to 188 °C. `COc1ccc(N2CCN(C3CCNCC3)C2=O)cc1` showed a melting point of 140 °C.

In the case of `Cc1cc(C(O)(c2ccccc2)c2ccccc2)on1`, the melting point is 116 to 118 °C. Next, `Cc1cc(Br)cnc1CCCCNc1ncc(Cc2ccccc2)c(=O)[nH]1`: 138 to 139 °C. Next, `CSC(Nc1cccnc1)=C(C#N)C#N`: 180 to 181 °C.

`O=S(c1ccc(C=Cc2nc(CCl)cs2)cc1)C(F)(F)F` (stereo unspecified) displayed a melting point of 98 to 99 °C. As for `CC(=O)OCc1ccc2oc(=O)c(C(=O)Oc3cc(Cl)cc(Cl)c3)cc2c1`, the melting point fell in the range of 146 to 150 °C.

`CC(=O)Nc1ccc2c(c1)OCC2` yielded a melting point of 115 to 118 °C.

For `CC(C)(C)NC(=O)c1ccc2ccccc2c1`, the melting point is 155 to 159 °C. Next, `O=C1CCN2CC3c4ccccc4CCc4cccc(c43)C2C1` (stereo unspecified): 163 to 165 °C; `COc1ccc(CSC2CC(=O)N2CC(=O)NCCCCCCc2ccc(F)cc2)cc1` (stereo unspecified): 53 to 55 °C; `CC(C)c1ccccc1Sc1c(O)cc(-c2ccc3c(c2)OCCO3)oc1=O`: 246 to 248 °C. `CC1(C)CC(OC(=O)CCC(=O)OC2CC(C)(C)N(OC3CCCCC3)C(C)(C)C2)CC(C)(C)N1OC1CCCCC1` showed a melting point of 122 to 126 °C.

As to `CCCCc1c2c(nc3c1CCc1cc4nc(C#N)c(N)cc4nc1-3)C(=O)CCC2`, the melting point is > 300 °C. Next, `N#Cc1ccc2c(c1)C(=O)c1ccccc1CC2`: 104 to 106 °C; `O=c1[nH]c2ncc(-c3ccc(-n4cccn4)cc3)nc2n1CC1CCOCC1`: 294 to 296 °C. Next, `O=C(Nc1cccc(-c2ccnc3c(C(=O)c4cccs4)cnn23)c1)c1cn[nH]c1`: 165 to 170 °C; `CCC(Oc1cccc(C(F)(F)F)c1)C(=O)NCc1ccccc1Cl` (stereo unspecified): 66 to 68 °C. Next, `COc1cccc2c1nc(C(F)F)n2-c1nc(N2CCOCC2)nc2c1ncn2-c1cccnc1`: 206 to 209 °C; `N#Cc1cc([N+](=O)[O-])ccc1Oc1c(F)c(F)c(F)c(F)c1F`: 128 to 129 °C.

In the case of `COC(=O)CNc1cc(O)c(C(C)=O)c(OC)c1`, the melting point fell in the range of 114 to 115 °C. Next, `NCCNC(=O)CNC(=O)Cc1ccccc1`: 132 to 137 °C; `Cc1nn(C)c(C)c1NC1=NCCO1`: 131 to 132 °C.

`Nc1ccc(Oc2ccc([N+](=O)[O-])cc2)cn1` yielded a melting point of 132 to 135 °C.

The molecule `O=S(=O)(CCN1CCOCC1)Nc1cc(C(c2cc(F)ccc2F)S(=O)(=O)c2ccc(Cl)cc2)c(Cl)cn1` (stereo unspecified) came in with a melting point of 219 to 221 °C. Next, `Cn1cc(C(=O)NCc2ccc(Cl)cc2)c(=O)c2cc(CN3CCOCC3)cc(C#CCCCO)c21`: 179 to 182 °C.

In turn, `O=C(Nc1ccc(-c2ncc(-c3ccc(NC(=O)C4CCCCCC4)cc3)[nH]2)cc1)c1ccc(F)cc1` registered a melting point of 314 to 316 °C. Next, `CSC[C@H](C)NC(=O)c1c(OC(F)(F)F)cccc1C(=O)Nc1ccc(Cn2nc(C(F)(F)F)cc2C(F)(F)F)cc1C`: 158 to 160 °C. Next, `S=C(NC1CCCCC1)N1CCc2[nH]cnc2C1`: 183 °C; `CC(=O)c1ccc(NC(=O)C=C(c2ccc(Cl)cc2)c2ccc(Cl)cc2)cc1`: 213 to 215 °C; `O=C(CC(=O)c1ccc(Br)cc1)c1ccc(Br)cc1`: 193 to 195 °C.

For the molecule `BrCc1nc(-c2ccccc2)cc2ccccc12`, the melting point came to 84 °C. As for `CCOC(=O)C(C)=NNc1ccc(F)c(Cl)c1`, the melting point fell in the range of 89 to 91 °C.

For the molecule `O=C(CNC(=O)c1nc2cccc(OC(F)(F)F)c2cc1OCc1ccccc1)OCc1ccccc1`, the melting point fell in the range of 123 to 124 °C. Take `Clc1nc(-c2cccnc2)[nH]c1Cl`: the melting point lay within 237 to 238 °C. Next, `CSc1ccc(-n2c(-c3ccncc3)nc(SC)c(C#N)c2=O)cc1`: 227 to 229 °C. As to `COCN(c1cccc2cc(-c3ncnn3C)n(COC)c12)S(=O)(=O)c1cccs1`, the melting point is 110 to 111 °C. `COc1ccc(-c2cn(O)c(=S)[nH]2)cc1`: the melting point came to 160 °C. Next, `COc1ccc(C(=O)c2cc3cc(Br)ccc3o2)cc1`: 143 to 146 °C; `NC(=O)c1nc(CN2CCOCC2)n(-c2ccc(Cl)cc2C(=O)c2ccccc2Cl)n1`: 165 to 167 °C. Next, `CCNc1ccc2nnc(-c3ncc([N+](=O)[O-])n3C)n2n1`: 258 to 263 °C. Next, `CCOc1ccc(C)cc1NC(=O)Nc1ccc(N2CCN(C(=O)OC(C)(C)C)CC2)cc1`: 105 to 107 °C; `Brc1ccc(N2CCN(c3ccncc3)CC2)nc1`: 176 to 180 °C; `CN1Sc2sccc2C=C1CN1CCOCC1`: 104 to 106 °C.

In turn, `CCS(=O)(=O)CCON=Cc1nn(-c2c(Cl)cc(C(F)(F)F)cc2Cl)c(N)c1S(C)=O` (stereo unspecified) yielded a melting point of 144 to 148 °C. Next, `CNC(=O)c1cnn(C2(C)CCCC2)c1C#N`: 139 to 141 °C; `O=C(OCc1ccccc1)c1ncn2c1[C@@H]1CCCN1C(=O)c1c(Cl)cccc1-2`: 141 to 142 °C; `Cc1[nH]cc(C(N)=O)c(=O)c1I`: 296 to 298 °C. Next, `O=Cc1cn(-c2cccnc2)c2ccccc12`: 148 to 150 °C.

Regarding `CCCc1nc2c(N)nc(C)c(C)c2n1CCCCN(O)C(=O)Nc1ccccc1`, the melting point was in the range of 159 to 160 °C. Next, `CC(Oc1ccc(Oc2cnc3cc(Cl)ccc3n2)cc1)C(=O)Nc1ccc(OC(F)(F)C(F)F)cc1` (stereo unspecified): 146 to 148 °C.

Consider `CCOC(=O)CNC(=O)CCCCCNC(=O)c1ccc(F)cc1`, for which the melting point fell in the range of 121 to 122 °C. Next, `CCOC(=O)CCCOc1ccc2c(c1)CN1CC(=O)NC1=N2`: 243 to 244 °C; `Cc1cc(CON2C(=O)c3ccccc3C2=O)on1`: 129 to 131 °C.
